In assay [1] the test system is MDA-MB-231/HBF1203 tumors. The assay can be described thus: Breast cancer xenograft treatment trial. The assay is classed as in vivo, mice. The settings on record: end of 8th week.
Assay [2] deals with PC3/PSC27 tumors. The assay is described as follows: Preclinical treatment trial, PC3/PSC27 xenograft tumor volume. It is filed as in vivo, mice.
In assay [3] the test system is PC3-only tumors. The assay can be described thus: Preclinical treatment trial, PC3-only tumor volume. It is filed as in vivo, mice. The settings on record: single agents; absence of stromal cells.
Description: All experimental mouse experiments were performed strictly following the relevant regulations of the experimental animals. Immuno-deficient mice(NOD-SCID mice, ICR) (body weight about 25 g) aged 6-8 weeks were used for animal experiments related to the present patent. Stromal cells PSC27 and epithelial cells PC3 were mixed at a predetermined ratio of 1:4, and each graft contained 1.25×10^6 cells for tissue remodeling. The xenograft tumors were implanted into mice by subcutaneous transplantation, and the animals were euthanized 8 weeks after the end of the transplantation surgery. Tumor volume was calculated according to the following formula: V=(π/6)×((1+w)/2)^3 (V, volume; 1, length; w, width). In a preclinical treatment trial, subcutaneously transplanted mice were fed with a standard experimental diet, after 2 weeks chemotherapy drugs mitoxantrone (MIT, dose: 0.2 mg/kg) and/or Rutin (500 μl, dose: 10 mg/kg), Rapamycin (500 μl, dose: 10 mg/kg) via intraperitoneal administration. The time points are as follows: all three drugs were administered to mice on the first day of the third, fifth and seventh weeks. A total of 3 cycles of administration was carried out throughout the course of treatment, and each cycle lasted for 2 weeks. After the course of treatment, mouse tumors were harvested for volume measurement and histological analysis. […] The chemotherapy experiment ended at the end of the 8th week, and the mice were dissected immediately after sacrifice, and the xenograft tumors were collected and used for pathological system analysis.
The test system of assay [4] is SASP factors, p16^INK4a, p21^CIP1. The assay can be described thus: qRT-PCR of SASP factors and senescence markers in tumor-bearing sites. It is filed as in vivo, mice.
Excerpt: Varying expression levels of transcripts between the groups of a set of typical SASP molecules in tumor-bearing sites of mice according to the detection and analysis of fluorescent quantitative PCR (qRT-PCR). Data in each group is normalized for the sample with the lowest expression value within the group. IL6, IL8, AREG and ILla are included. […] Varying expression levels of transcripts between the groups of another set of typical SASP molecules in tumor-bearing sites of mice according to the detection and analysis of fluorescent quantitative PCR (qRT-PCR). Data in each group is normalized for the sample with the lowest expression value within the group. MMP1, MMP3, ANGPTL4 and SPINK1 are included. […] Varying expression levels of transcripts between the groups of a set of cellular senescence-specific biomarkers in tumor-bearing sites of mice according to the detection and analysis of fluorescent quantitative PCR (qRT-PCR). […] After the reaction was completed, the amplification of each gene was checked by software analysis, the corresponding threshold cycle number was derived, and the relative expression of each gene was calculated using the 2-ΔΔCt method. The peak and waveform of the melting curve was analyzed to determine whether the obtained amplification product was a specific single target fragment.
Assay [5] deals with PC3/PSC27 tumors. The assay can be described thus: SA-β-Gal staining of PC3/PSC27 tumor tissue. The assay is classed as in vivo, mice. The settings on record: PC3/PSC27 tumor lesions.
Description: Comparison of cell senescence in PC3/PSC27 tumor-bearing animal lesions in preclinical experiments. Representative pictures after SA-β-Gal staining. […] Senescence-associated β-galactosidase (SA-β-Gal) staining was performed following a previously reported procedure (Debacq-Chainiaux et al., 2009). Briefly, cells in culture dishes were washed with PBS and fixed at room temperature. Cells were fixed in 2% formaldehyde and 0.2% glutaraldehyde for 3 minutes. SA-β-Gal was used for staining with freshly prepared staining solution overnight at 37° C. Images were taken on the next day and the percentage of positive cells per unit area was calculated.
Assay [6] relates to PC3/PSC27 xenografts. The assay can be described thus: DNA damage and apoptosis of cancer cells in PC3/PSC27 xenografts. To be noted: tumors dissected 7 days after initiation of treatment. The assay is classed as in vivo, mice.
In assay [7] the test system is AREG. The assay is described as follows: ELISA of circulating serum SASP proteins. It is filed as in vivo, mice. To be noted: mouse serum. (In general: In an ELISA, binding on a coated surface is turned into a signal by an enzyme label.)
Description: (§1) FIG. 41. Circulating serum proteins of SASP typical factors in mice were examined using ELISA. Left, AREG. Right, EREG. […] The time points are as follows: all three drugs were administered to mice on the first day of the third, fifth and seventh weeks. A total of 3 cycles of administration was carried out throughout the course of treatment, and each cycle lasted for 2 weeks. After the course of treatment, mouse tumors were harvested for volume measurement and histological analysis. […] The chemotherapy experiment ended at the end of the 8th week, and the mice were dissected immediately after sacrifice, and the xenograft tumors were collected and used for pathological system analysis. […] For alternative chemotherapeutics, vincristine or vinblastine (dose: 1.0 mg/kg) is administered intraperitoneally.
For assay [8], the system named is EREG. The assay is described as follows: ELISA of circulating serum SASP proteins. The settings on record: mouse serum. The assay is classed as in vivo, mice.
Description: as §1
The test system of assay [9] is PSC27 cells. The assay can be described thus: SA-β-Gal staining of PSC27 cells. The assay is classed as cell-based, human. To be noted: BLEO 50 μg/ml induces senescence, rutin tested on proliferating and BLEO-induced senescent cells.
The subject of assay [10] is PSC27 cells. The assay is described as follows: BrdU incorporation of PSC27 cells. The assay is classed as cell-based, human. To be noted: BLEO 50 μg/ml induces senescence, rutin tested on proliferating and BLEO-induced senescent cells.
Assay [11] concerns ATM, TAK1, p38MAPK, PI3K/Akt/mTOR, IL8. The assay is described as follows: Immunoblot of DDR pathways and SASP expression in PSC27 cells. It is filed as cell-based, human. The settings on record: for ATM activation / phosphorylation: BLEO-induced senescence, with or without rutin.
Assay [12] deals with PSC27 cells. The assay is described as follows: ROS production in PSC27 cells with DCFH-DA. It is filed as cell-based, human. From the text: FIG. 23. Measurement of Reactive Oxygen Species (ROS) production in PSC27 cells under various conditions with DCFH-DA, a fluorescent reagent. Left, representative images, scale bar, […]; Right, comparative statistics.
The test system of assay [13] is IL8 (interleukin 8). The assay can be described thus: NMA library screen: expression of SASP factor IL8 in PSC27 cells. To be noted: senescent PSC27 cells. It is filed as cell-based, human.
The test system of assay [14] is SASP factors. The assay can be described thus: qRT-PCR of typical SASP factors in BLEO-induced senescent PSC27 cells. The assay is classed as cell-based, human. To be noted: IL6, IL8, IL1a, IL1β, CXCL3, MMP3, GM-CSF, 20-100 μM tested. On the technique in general: In qPCR the cycle at which signal appears reflects the starting amount.
Assay [15] has as its system PSC27 cells. The assay can be described thus: RNA-seq / GSEA of PSC27 cells. It is filed as cell-based, human. How it is done:
Whole-transcriptome sequencing was performed on the primary human prostate stromal cell line PSC27 under different treatment conditions. Total RNA samples were obtained from stromal cells. Their integrity was verified by Bioanalyzer 2100 (Agilent), RNA was sequenced by Illumina HiSeq X10, and gene expression levels were quantified by software package […]/). Briefly, rRNA was depleted from RNA samples with the RiboMinus Eukaryote Kit (Qiagen, Valencia, CA, USA); and according to the manufacturer's instructions, TruSeq Stranded Total RNA Preparation Kits (Illumina, San Diego, CA, USA) was used to construct a strand-specific RNA-seq library before deep sequencing. Paired-end transcriptomic reads were mapped to a reference genome (GRCh38/hg38), and reference-annotation was performed from Gencode v27 using the Bowtie tool. Duplicate reads were identified using the picard Tools (1.98) script to mark duplicates (https://github.com/broadinstitute/picard), and only non-duplicate reads were retained. Reference splice junctions were provided by reference transcriptome (Ensembl Build 73). FPKM values were calculated with Cufflinks, and Cufflinks maximum likelihood estimation function was used to call differential gene expression. […] Next, Trim Galore (v0.3.0) (http://www.bioinformatics.babraham.ac.uk/projects/trim_galore/) was used to trim the reads, while the quality assessment was carried out by using FastQC (v0.10.0) (http://www.bioinformatics.bbsrc.ac.uk/projects/fastqc/). Subsequently, DAVID bioinformatics platform ( ) and ingenuity Pathways Analysis (IPA) program (http://www.ingenuity.com/index.html) were used. A preliminary analysis of the raw data was performed on a free online platform, Majorbio I-Sanger Cloud Platform (www.i-sanger.com) and the raw data were deposited in the NCBI Gene Expression Omnibus (GEO) database with access code GSE156448. Based on the data obtained from the preliminary analysis of RNA-seq, after analyzing and comparing each differentially expressed significant gene, the genes were sorted using the “wald statistics” obtained from DESeq2. GSEA was performed on the sorting lists of all planning gene sets available in MSigDB (http://software.broadinstitute.org/gsea/msigdb). DESeq2 independent filtering was based on the average of normalized read counts to select genes with very low expression levels. The SASP and GSEA signature were as described in our previous publication (Zhang et al., 2018a).

Assay [16] relates to TRAF6-TAK1 interaction. The assay is described as follows: p-TAK1-mediated IP and immunoblot in PSC27 cells. The assay is classed as cell-based, human. The settings on record: BLEO and/or rutin.
Assay [17] has as its target ATM and TRAF6 interaction (Homo sapiens, UniProt Q13315+Q9Y4K3). The assay is described as follows: p-ATM-mediated IP and immunoblot in PSC27 cells. To be noted: BLEO and/or rutin. It is filed as cell-based. For orientation: A western blot detects proteins with antibodies after separation by electrophoresis.
Assay [18] deals with ATM and HIF1α interaction (Homo sapiens, UniProt Q13315+Q16665). The assay can be described thus: p-ATM-mediated IP and immunoblot in PSC27 cells. It is filed as cell-based. To be noted: BLEO and/or rutin.
Sequence of ATM and HIF1α interaction (Q13315 2-3056 limits assumed): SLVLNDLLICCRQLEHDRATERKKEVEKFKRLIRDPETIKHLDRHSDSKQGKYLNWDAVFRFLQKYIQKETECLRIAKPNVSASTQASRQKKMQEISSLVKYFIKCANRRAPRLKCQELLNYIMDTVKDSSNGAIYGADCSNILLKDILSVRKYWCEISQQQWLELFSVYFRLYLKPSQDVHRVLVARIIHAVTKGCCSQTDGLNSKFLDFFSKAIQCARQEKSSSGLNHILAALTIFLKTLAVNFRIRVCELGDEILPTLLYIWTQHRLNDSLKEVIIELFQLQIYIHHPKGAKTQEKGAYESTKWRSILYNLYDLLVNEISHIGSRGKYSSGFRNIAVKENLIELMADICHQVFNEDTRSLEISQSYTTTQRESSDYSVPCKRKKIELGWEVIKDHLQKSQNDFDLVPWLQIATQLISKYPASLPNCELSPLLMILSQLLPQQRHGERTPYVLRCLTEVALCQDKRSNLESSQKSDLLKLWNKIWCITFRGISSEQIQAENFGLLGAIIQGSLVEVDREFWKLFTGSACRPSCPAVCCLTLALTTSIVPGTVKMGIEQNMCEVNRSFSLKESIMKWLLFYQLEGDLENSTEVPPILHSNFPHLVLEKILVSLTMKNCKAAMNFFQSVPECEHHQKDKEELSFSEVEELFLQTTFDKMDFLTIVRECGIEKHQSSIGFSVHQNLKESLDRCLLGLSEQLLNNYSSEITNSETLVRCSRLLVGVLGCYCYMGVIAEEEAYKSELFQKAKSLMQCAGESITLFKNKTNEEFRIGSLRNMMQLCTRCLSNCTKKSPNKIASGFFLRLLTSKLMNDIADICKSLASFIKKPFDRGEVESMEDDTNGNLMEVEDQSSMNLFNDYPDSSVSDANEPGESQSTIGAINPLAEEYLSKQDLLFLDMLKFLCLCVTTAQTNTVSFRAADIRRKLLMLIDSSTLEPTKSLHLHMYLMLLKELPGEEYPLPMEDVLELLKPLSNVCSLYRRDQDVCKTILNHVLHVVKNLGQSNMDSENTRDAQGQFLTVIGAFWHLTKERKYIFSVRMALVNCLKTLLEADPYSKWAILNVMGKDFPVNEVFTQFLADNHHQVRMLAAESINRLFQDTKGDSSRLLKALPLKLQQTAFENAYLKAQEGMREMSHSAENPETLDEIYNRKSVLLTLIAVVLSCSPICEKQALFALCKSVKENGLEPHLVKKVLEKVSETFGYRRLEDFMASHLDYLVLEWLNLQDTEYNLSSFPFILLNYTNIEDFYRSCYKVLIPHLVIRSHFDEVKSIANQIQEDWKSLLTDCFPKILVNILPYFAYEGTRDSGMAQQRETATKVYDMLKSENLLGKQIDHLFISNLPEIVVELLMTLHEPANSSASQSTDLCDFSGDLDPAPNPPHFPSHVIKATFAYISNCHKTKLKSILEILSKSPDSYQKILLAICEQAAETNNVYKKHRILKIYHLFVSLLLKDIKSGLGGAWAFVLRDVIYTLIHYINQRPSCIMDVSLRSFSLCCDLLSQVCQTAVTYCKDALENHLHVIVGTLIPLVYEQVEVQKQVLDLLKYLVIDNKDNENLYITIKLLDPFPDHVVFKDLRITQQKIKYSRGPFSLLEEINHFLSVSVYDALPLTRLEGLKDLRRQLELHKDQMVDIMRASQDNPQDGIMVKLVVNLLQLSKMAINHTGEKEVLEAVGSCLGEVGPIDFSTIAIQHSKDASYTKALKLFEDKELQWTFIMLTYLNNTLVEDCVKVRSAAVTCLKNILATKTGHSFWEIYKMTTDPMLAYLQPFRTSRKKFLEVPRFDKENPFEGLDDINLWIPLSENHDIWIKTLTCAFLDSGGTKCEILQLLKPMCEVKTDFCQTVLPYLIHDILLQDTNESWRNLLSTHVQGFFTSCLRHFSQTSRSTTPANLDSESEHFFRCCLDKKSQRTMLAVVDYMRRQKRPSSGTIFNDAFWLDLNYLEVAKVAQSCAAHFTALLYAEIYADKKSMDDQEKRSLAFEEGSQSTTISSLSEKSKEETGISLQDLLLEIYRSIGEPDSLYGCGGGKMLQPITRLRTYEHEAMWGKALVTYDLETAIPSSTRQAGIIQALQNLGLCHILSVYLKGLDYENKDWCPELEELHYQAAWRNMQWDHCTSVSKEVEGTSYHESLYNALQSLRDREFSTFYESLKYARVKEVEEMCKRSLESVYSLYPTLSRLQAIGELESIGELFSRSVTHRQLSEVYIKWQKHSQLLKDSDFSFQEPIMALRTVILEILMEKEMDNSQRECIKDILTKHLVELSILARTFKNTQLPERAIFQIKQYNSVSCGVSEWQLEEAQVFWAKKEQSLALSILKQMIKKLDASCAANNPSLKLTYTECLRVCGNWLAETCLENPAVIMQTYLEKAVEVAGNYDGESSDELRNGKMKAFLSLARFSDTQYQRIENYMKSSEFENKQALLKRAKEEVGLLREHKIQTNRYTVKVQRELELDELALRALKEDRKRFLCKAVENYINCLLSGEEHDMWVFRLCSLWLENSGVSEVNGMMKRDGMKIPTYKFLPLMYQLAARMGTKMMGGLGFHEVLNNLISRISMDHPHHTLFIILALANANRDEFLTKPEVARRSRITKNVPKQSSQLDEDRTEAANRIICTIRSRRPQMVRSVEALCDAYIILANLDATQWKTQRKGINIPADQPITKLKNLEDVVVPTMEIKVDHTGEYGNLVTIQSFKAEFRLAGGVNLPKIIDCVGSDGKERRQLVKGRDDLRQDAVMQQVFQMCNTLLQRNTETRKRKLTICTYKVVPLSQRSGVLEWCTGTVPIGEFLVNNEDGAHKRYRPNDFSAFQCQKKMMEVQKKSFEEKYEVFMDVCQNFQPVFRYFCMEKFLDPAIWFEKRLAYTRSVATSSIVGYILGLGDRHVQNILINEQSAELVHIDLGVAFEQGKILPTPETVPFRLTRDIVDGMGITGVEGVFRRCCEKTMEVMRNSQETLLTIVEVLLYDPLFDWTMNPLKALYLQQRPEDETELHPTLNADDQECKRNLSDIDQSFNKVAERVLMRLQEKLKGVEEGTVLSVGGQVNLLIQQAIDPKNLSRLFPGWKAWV
Sequence of ATM and HIF1α interaction (Q16665 whole entry): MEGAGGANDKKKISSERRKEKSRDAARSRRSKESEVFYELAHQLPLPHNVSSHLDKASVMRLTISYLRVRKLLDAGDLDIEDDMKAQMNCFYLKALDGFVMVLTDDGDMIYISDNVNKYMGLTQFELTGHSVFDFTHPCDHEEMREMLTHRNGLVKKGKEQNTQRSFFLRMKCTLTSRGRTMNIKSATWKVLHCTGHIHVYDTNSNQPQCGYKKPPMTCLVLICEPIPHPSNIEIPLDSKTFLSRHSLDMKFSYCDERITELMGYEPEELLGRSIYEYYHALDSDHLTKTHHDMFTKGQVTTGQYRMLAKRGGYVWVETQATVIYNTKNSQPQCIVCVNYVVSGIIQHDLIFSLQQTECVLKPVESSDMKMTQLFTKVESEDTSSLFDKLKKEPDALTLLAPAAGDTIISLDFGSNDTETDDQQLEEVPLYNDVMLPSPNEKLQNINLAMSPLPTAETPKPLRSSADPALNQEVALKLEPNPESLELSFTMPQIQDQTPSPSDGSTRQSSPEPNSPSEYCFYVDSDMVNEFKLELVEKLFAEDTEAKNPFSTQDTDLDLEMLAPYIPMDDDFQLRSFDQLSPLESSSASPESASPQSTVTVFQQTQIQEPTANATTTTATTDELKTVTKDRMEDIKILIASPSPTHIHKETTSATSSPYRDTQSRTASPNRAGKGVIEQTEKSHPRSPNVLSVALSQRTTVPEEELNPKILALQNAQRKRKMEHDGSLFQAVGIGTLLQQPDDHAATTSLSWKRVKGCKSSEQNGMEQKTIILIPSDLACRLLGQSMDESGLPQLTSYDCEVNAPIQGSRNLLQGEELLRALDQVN
Assay [19] concerns p65 and p50 (NF-κB). The assay can be described thus: Immunoblot after separation of the nucleoplasm, PSC27 cells. The assay is classed as cell-based, human.
Description: Immunoblot analysis of cell lysates of PSC27 cells upon BELO and/or rutin intervention after separation of the nucleoplasm. C, cytoplasmic; N; Nuclear. Lamin A/C, loading control for nuclear proteins. GAPDH, loading control for cytoplasmic proteins. Cell lysate-derived proteins were separated using NuPAGE 4-12% Bis-Tris gel and transferred to nitrocellulose membranes (Life Technologies). The blot was blocked with 5% skimmed milk for 1 h at room temperature, incubated overnight at 4° C. with the desired primary antibody at the manufacturer's protocol concentration, and then incubated with horseradish peroxidase-conjugated secondary antibody (Santa Cruz) for 1 h. Blot signal detection was carried out with enhanced chemiluminescence (ECL) detection reagent (Millipore) according to the manufacturer's protocol, and ImageQuant LAS 400 Phospho-Imager (GE Healthcare) was used. As a standard protein marker, PageRuler Plus Prestained Protein Ladder (no. 26619) from Thermo Fisher Scientific was used by the inventors.
Assay [20] concerns PC3, DU145, M12 and LNCaP. The assay can be described thus: Proliferation, migration and invasion of prostate cancer cells cultured with PSC27 conditioned media. It is filed as cell-based, human. To be noted: rutin final concentration 100 μM.
For assay [21], the system named is PC3, DU145, M12 and LNCaP. The assay is described as follows: Drug resistance of prostate cancer cells cultured with PSC27 conditioned media. It is filed as cell-based, human. The settings on record: rutin final concentration 100 μM.
The test system of assay [22] is PC3 cells. The assay can be described thus: Dose-response curves of PC3 cells with PSC27-BLEO CM exposed to MIT. The assay is classed as cell-based, human. The settings on record: PC3 exposed to MIT at 0.1-1.0 μM; rutin 100 μM.
For assay [23], the system named is PC3/PSC27 tumors. The assay can be described thus: Xenografts of PC3 with PSC27 sublines (naive, senescent, pretreated). It is filed as in vivo. The settings on record: PC3 + PSC27^SEN recombinants, SCID mice, 8 weeks, p<0.0001.
Where [24] appears, read: FIG. 14, senescence induction and rutin intervention, P<0.01, Fold change>4.
Where [25] appears, read: senescent PSC27 upon rutin, 2-fold change of log 2-based, p<0.01.

The values below come from patent US20240358732A1, “Use of Rutin and Rapamycin in the Preparation of Synergistic Chemotherapy Drugs for Tumor Inhibition” (priority 2023, published 2024).

Sequence of ATM and TRAF6 interaction (Q13315 2-3056 limits assumed): as the sequence (Q13315 2-3056 limits assumed) above
Sequence of ATM and TRAF6 interaction (Q9Y4K3 whole entry): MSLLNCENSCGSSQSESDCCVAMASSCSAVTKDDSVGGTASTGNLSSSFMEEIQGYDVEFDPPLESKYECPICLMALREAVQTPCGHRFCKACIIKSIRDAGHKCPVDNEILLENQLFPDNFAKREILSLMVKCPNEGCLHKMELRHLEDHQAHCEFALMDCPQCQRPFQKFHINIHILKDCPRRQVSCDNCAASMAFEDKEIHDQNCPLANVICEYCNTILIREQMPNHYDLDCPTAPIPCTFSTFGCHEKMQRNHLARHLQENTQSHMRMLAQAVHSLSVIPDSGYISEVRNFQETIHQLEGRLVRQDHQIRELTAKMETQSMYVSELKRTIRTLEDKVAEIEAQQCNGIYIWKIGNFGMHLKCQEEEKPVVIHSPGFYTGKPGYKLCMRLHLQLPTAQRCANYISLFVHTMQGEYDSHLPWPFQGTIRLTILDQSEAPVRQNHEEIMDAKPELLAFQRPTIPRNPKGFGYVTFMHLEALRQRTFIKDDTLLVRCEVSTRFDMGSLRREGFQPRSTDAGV

For the molecule `CC[C@]1(O)C[C@H]2CN(CCc3c([nH]c4ccccc34)[C@@](C(=O)OC)(c3cc4c(cc3OC)N(C=O)[C@H]3[C@@](O)(C(=O)OC)[C@H](OC(C)=O)[C@]5(CC)C=CCN6CC[C@]43[C@@H]65)C2)C1` [VIN, vincristine], in assay [1], the “outcome of combination of the chemotherapeutic drug with rutin and rapamycin” value is “did not exhibit the characteristics of effective drug combination therapy”.

Consider `CC[C@]1(O)C[C@H]2CN(CCc3c([nH]c4ccccc34)[C@@](C(=O)OC)(c3cc4c(cc3OC)N(C=O)[C@H]3[C@@](O)(C(=O)OC)[C@H](OC(C)=O)[C@]5(CC)C=CCN6CC[C@]43[C@@H]65)C2)C1` [vincristine], for which the “benefit of the chemotherapeutic drug from combined use of rutin and/or rapamycin” value in assay [2] (PC3 and PC3/PSC27 tumors) is reported as “did not show such benefits”.

For `O=C1c2c(O)ccc(O)c2C(=O)c2c(NCCNCCO)ccc(NCCNCCO)c21` [MIT, mitoxantrone], the “tumor sizes in contrast to placebo” value in assay [2] (8-week regimen, MIT on 1st day of 3rd, 5th, 7th week) is recorded as “remarkably reduced tumor sizes”. In [2] (PC3/PSC27 tumors, MIT alone, end of 8th week), this molecule had a tumor volume decrease of 35.5%. Also, the “effect on PC3-only tumors” value in assay [3] is recorded as “caused shrinkage”. In [4] (IL6, IL8, AREG, IL1a, MMP1, MMP3, ANGPTL4, SPINK1), the “expression of typical SASP factors in tumors” value was “significant upregulation”. The “typical senescence markers in tumors” value in assay [4] (p16^INK4a, p21^CIP1 and SA-β-GAL) was “induction”. The “tissue senescence by SA-β-GAL staining” value in assay [5] is “considerable tissue senescence”. For the same molecule, in [6], the “DNA damage (DDR) in cancer cells” value is recorded as “substantial” and the “apoptosis / cell death in cancer cells” value was “substantial”. Moreover, the “circulating AREG level” value in assay [7] was “elevated levels”. In [8], the “circulating EREG level” value is reported as “elevated levels”.

Take bleomycin [reference compound]: the SA-β-Gal staining entry in [9] is “elevated positivity”. Besides, in assay [10], the BrdU incorporation result is reported as “reduced BrdU incorporation”. Besides, in assay [11], the “ATM activation / phosphorylation” value is on record as “markedly activated”. Moreover, the “ROS levels in contrast to normal counterparts” value in [12] (PSC27 cells after BLEO genotoxicity) was “remarkably elevated ROS levels”.

`COc1cccc2c1C(=O)c1c(O)c3c(c(O)c1C2=O)C[C@@](O)(C(=O)CO)C[C@@H]3O[C@H]1C[C@H](N)[C@H](O)[C@H](C)O1` [doxorubicin]: the “outcome of combination of the chemotherapeutic drug with rutin and rapamycin” value in [1] is given as “largely reproduced the results of preclinical experiments performed with PCa system”.

`CO[C@H]1C[C@@H]2CC[C@@H](C)[C@@](O)(O2)C(=O)C(=O)N2CCCC[C@H]2C(=O)O[C@H]([C@H](C)C[C@@H]2CC[C@@H](O)[C@H](OC)C2)CC(=O)[C@H](C)/C=C(\C)[C@@H](O)[C@@H](OC)C(=O)[C@H](C)C[C@H](C)/C=C/C=C/C=C/1C` [rapamycin]: the “effect on PC3-only tumors” value in assay [3] is “did not show a remarkable effect”.

Regarding `C[C@@H]1O[C@@H](OC[C@H]2O[C@@H](Oc3c(-c4ccc(O)c(O)c4)oc4cc(O)cc(O)c4c3=O)[C@H](O)[C@@H](O)[C@@H]2O)[C@H](O)[C@H](O)[C@H]1O` [rutin], the SA-β-Gal staining entry in [9] is given as “remained largely unchanged”. Moreover, the BrdU incorporation entry in [10] is listed as “remained largely unchanged”. The “expression of interleukin 8 (IL8), a hallmark SASP factor (senomorphic potential)” value in [13] was “prominent efficacy in downregulating”. Further, the “concentration with the most optimal effects in restraining expression of typical SASP components” value in assay [14] amounted to 100 µM. In addition, in [15] (setting [24]), the genes down-regulated came to 3733 genes and the genes up-regulated came out at 886 genes. The “transcriptome-wide expression of SASP factors” value in assay [15] (RNA-seq, senescent PSC27 cells treated with rutin) is on record as “most of the SASP factors were indeed downregulated”. Also, the “GSEA SASP signature” value in [15] (senescent PSC27 cells treated with rutin) is “specifically and significantly inhibited SASP”. In assay [15] (setting [25]), this molecule returned a transcripts downregulated of 3733 transcripts, a transcripts significantly modified of 4619 transcripts and a transcripts upregulated of 886 transcripts. For the same molecule, the “ATM activation / phosphorylation” value in [11] was “remained largely unaffected”. Besides, the “TAK1 phosphorylation, p38MAPK activation, PI3K/Akt/mTOR activation and IL8 upregulation after BLEO” value in assay [11] (in the presence of rutin) is recorded as “generally diminished”. In addition, the “TAK1 activation and TRAF6-TAK1 interaction” value in assay [16] was “considerably restrained”. For the same molecule, in [17], the “interaction of ATM and TRAF6” value is “significantly weakens”. In addition, the “mutual interaction between ATM and HIF1α” value in assay [18] is reported as “subject to interruption”. Moreover, the “cytoplasm-to-nucleus translocation of p65 and p50 upon cellular senescence” value in assay [19] is listed as “largely abolished”. Moreover, in [12] (PSC27, BLEO-induced senescent), the “ROS generation by senescent cells” value is listed as “significantly suppressed”. The “production of ROS in proliferating cells” value in [12] (PSC27, proliferating) is “did not change”. The “gain-of-functions (proliferation, migration, invasion; malignancy) conferred by CM from senescent PSC27 cells” value in assay [20] was “almost completely disappeared”. Besides, in assay [21], the “counteraction of the increase in cancer cell viability upon senescent stromal cell-derived CM” value was “about 80%”. In addition, in assay [22], the “cancer resistance conferred by the CM of senescent stromal cells” value is listed as “remarkably downregulate cancer resistance”. In [23], the “tumor volumes after pretreatment of PSC27^SEN cells in vitro” value is reported as “considerably reduced tumor volumes”. The “effect on PC3-only tumors” value in assay [3] was “did not show a remarkable effect”. Besides, in [5], the “tissue senescence by SA-β-GAL staining” value is reported as “neither promote nor suppress senescence”.
